Assay results from ChEMBL document CHEMBL1156016, “Discovery of potent and selective histone deacetylase inhibitors via focused combinatorial libraries of cyclic alpha3beta-tetrapeptides” (J Med Chem, 2009).
The source made the active and inactive calls. No cut-off for these calls is given here. Square brackets hold non-standard residues; d marks the D form. Peptide text beside a SMILES is read from it. * marks the point of attachment. Phe(F5) = N[C@@H](Cc1c(F)c(F)c(F)c(F)c1F)C(=O)O; β3hW = N[C@H](CC(=O)O)Cc1c[nH]c2ccccc12; 1Nal = N[C@@H](Cc1cccc2ccccc12)C(=O)O; β3hY = N[C@H](CC(=O)O)Cc1ccc(O)cc1; Asu = N[C@@H](CCCCCC(=O)O)C(=O)O; β3hL = CC(C)C[C@H](N)CC(=O)O; hLys = NCCCCC[C@H](N)C(=O)O; Carboxymethyl = O=C(O)C*; CH2CH2COOH = O=C(O)CC*; Aib = CC(C)(N)C(=O)O; X1 = CCC(=O)CC*; NHOH = ON*

Assays:
cells = conditions: Homo sapiens, KYO1, 72 h
Jurkat = experiment: cells; conditions: Homo sapiens, 72 h
K562 = experiment: cells; conditions: Homo sapiens, K562, 72 h
Histone deacetylase 3 = Histone deacetylase 3 (Homo sapiens, UniProt O15379)
Histone deacetylase 3, sequence (O15379 whole entry): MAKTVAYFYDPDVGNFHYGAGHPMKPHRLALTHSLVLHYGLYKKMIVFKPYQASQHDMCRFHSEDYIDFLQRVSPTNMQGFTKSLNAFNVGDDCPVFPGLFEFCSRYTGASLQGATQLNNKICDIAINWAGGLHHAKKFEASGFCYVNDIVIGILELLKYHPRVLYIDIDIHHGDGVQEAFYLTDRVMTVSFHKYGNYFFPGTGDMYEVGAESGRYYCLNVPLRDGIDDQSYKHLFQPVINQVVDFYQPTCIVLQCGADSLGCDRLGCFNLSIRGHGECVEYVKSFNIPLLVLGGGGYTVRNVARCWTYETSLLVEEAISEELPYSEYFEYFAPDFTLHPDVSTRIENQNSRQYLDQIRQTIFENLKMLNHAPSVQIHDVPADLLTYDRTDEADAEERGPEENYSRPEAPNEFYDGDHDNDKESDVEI
Description: Inhibition of human recombinant HDAC3 after 30 mins by fluorimetric assay

[1] = molecular target: T1, Protein deacetylase HDAC6 (Homo sapiens, UniProt Q9UBN7)
T1 sequence (Q9UBN7 whole entry): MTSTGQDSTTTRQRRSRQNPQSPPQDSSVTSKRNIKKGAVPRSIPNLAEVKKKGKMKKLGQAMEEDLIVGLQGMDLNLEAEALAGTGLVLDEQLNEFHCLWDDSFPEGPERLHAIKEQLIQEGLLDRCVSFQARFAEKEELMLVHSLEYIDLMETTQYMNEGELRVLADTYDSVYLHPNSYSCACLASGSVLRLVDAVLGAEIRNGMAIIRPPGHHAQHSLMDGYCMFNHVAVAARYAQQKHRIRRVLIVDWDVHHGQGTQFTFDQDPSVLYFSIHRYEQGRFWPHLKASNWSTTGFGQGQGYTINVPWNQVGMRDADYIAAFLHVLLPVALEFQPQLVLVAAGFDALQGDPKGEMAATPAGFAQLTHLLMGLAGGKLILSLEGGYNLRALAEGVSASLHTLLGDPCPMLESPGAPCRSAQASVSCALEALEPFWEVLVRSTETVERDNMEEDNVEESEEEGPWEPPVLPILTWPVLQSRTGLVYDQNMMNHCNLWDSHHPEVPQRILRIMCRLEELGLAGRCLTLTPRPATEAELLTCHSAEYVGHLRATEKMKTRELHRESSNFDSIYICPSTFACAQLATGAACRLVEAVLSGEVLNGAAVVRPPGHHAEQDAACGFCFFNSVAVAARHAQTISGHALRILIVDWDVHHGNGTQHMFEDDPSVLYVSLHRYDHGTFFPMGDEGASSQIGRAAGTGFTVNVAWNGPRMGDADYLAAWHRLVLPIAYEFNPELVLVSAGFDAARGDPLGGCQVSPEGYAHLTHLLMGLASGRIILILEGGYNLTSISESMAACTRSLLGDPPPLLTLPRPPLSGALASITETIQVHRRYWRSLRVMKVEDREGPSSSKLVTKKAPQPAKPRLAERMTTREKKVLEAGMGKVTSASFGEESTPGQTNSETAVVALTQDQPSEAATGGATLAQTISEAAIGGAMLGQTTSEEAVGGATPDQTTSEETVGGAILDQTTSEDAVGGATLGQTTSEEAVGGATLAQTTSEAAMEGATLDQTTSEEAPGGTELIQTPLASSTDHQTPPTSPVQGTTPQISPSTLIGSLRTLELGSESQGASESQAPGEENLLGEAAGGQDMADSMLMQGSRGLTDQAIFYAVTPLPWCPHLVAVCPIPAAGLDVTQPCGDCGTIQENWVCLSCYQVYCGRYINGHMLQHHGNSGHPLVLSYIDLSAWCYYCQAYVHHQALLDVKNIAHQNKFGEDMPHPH
Description: Inhibition of human recombinant HDAC6 after 30 mins by fluorimetric assay

Histone deacetylase 1 = Histone deacetylase 1 (Homo sapiens, UniProt Q13547)
Histone deacetylase 1, sequence (Q13547 whole entry): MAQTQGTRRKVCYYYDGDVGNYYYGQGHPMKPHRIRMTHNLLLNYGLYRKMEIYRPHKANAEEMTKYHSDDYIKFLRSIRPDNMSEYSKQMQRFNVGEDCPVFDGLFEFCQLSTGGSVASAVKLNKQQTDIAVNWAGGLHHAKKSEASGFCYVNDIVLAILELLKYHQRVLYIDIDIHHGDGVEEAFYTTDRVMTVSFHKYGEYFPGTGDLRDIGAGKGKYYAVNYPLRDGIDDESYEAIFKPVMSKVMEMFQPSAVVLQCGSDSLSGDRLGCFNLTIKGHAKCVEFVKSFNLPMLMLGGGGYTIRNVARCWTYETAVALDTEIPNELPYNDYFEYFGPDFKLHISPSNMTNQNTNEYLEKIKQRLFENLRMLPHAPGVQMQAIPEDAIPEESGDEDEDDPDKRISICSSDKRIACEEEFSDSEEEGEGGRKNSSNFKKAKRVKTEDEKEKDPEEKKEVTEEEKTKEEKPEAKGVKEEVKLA
Description: Inhibition of human recombinant HDAC1 after 30 mins by fluorimetric assay

Histone deacetylase [2] = type: cell-based, Homo sapiens; conditions: hela
Description: Inhibition of HDAC in human HeLa cell nuclear extract after 30 mins by fluorimetric assay

Histone deacetylase [3] = type: cell-based, Homo sapiens; conditions: hela; remark: listed apart in the source
Description: Inhibition of HDAC in human HeLa cell cytosolic extract after 30 mins by fluorimetric assay

Histone deacetylase 8 = molecular target: T2, Histone deacetylase 8 (Homo sapiens, UniProt Q9BY41)
T2 sequence (Q9BY41 whole entry): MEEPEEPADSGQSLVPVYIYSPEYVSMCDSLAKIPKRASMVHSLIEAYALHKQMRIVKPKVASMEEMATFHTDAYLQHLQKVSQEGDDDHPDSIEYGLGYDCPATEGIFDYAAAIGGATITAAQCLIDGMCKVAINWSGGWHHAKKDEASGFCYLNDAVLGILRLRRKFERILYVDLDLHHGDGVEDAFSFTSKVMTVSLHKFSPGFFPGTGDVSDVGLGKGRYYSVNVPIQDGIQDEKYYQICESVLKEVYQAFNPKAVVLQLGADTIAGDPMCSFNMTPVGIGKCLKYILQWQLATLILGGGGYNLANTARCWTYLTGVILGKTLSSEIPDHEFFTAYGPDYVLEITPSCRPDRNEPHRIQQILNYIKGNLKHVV
Description: Inhibition of human recombinant HDAC8 after 30 mins by fluorimetric assay

HeLa = experiment: cells; conditions: Homo sapiens, 72 h
MCF7 = experiment: cells; conditions: Homo sapiens, MCF7, 72 h
[4] = molecular target: Histone deacetylase (Homo sapiens) (UniProt Q13547+O15379+Q9UBN7+Q92769+Q9UQL6+Q8WUI4+Q9BY41+Q96DB2+P56524+Q9UKV0+Q969S8); experiment: Inhibition of class 1 HDAC in human Jurkat cells assessed as acetylated histone H3 level at 0.2 to 20 uM after 24 hrs by Western blotting; type: cell-based
[5] = molecular target: T3, Protein deacetylase HDAC6 (Homo sapiens) (UniProt Q9UBN7); experiment: Inhibition of HDAC6 in human Jurkat cells assessed as acetylated alpha-tubulin level at 0.2 to 20 uM after 24 hrs by Western blotting; type: cell-based
T3 sequence (whole entry): T1 sequence (Q9UBN7 whole entry)

Row | Structure (SMILES) | IC50 (Histone deacetylase 3) [nM] | IC50 [1] [nM] | IC50 (Histone deacetylase 1) [nM] | IC50 (Histone deacetylase 8) [nM] | also measured
1 | CC(C)C[C@H]1CC(=O)N[C@@H](Cc2ccccc2)C(=O)N[C@@H](CCCCCC(=O)NO)C(=O)N[C@@H](Cc2c[nH]c3ccccc23)C(=O)N1 (cyclo([Asu](NHOH)W[β3hL]F)) | 31 | 70 |  |  | GI50 (cells): 1900 nM; GI50 (Jurkat): 1300 nM; GI50 (K562): 1900 nM
2 | O=C(O)CCCCC[C@@H]1NC(=O)[C@H](Cc2ccccc2)NC(=O)C[C@H](Cc2c[nH]c3ccccc23)NC(=O)[C@H](Cc2cccc3ccccc23)NC1=O (cyclo([1Nal][β3hW]F[Asu])) | 1670 | 8000 | 460 |  | IC50 (Histone deacetylase [2]): 1040 nM; IC50 (Histone deacetylase [3]): 1009 nM
3 | CCC(=O)CCCCC[C@@H]1NC(=O)C[C@H](CC(C)C)NC(=O)[C@H](Cc2c[nH]c3ccccc23)NC(=O)[C@H](CCCCCC(=O)CC)NC1=O | 260 | > 10000 | 150 | 1400 | 
4 | CCC(=O)CCCCC[C@@H]1NC(=O)[C@H](CCCCNC(C)=O)NC(=O)C[C@H](CC(C)C)NC(=O)[C@H](Cc2c[nH]c3ccccc23)NC1=O |  |  |  |  | GI50 (Jurkat): > 20000 nM; GI50 (HeLa): > 20000 nM; GI50 (MCF7): > 20000 nM
5 | CC(C)C[C@H]1CC(=O)N[C@@H](C)C(=O)N[C@@H](CCCCCC(=O)O)C(=O)N[C@@H](Cc2cccc3ccccc23)C(=O)N1 (cyclo([Asu][1Nal][β3hL]A)) | 990 |  | 200 |  | IC50 (Histone deacetylase [2]): 205 nM; IC50 (Histone deacetylase [3]): 377 nM
6 | O=C(O)CCCCC[C@@H]1NC(=O)[C@H]2CCCCN2C(=O)C[C@H](Cc2ccccc2)NC(=O)[C@H](Cc2c[nH]c3ccccc23)NC1=O |  |  |  |  | IC50 (Histone deacetylase [3]): 791 nM
7 | CC(=O)NCCCC[C@@H]1NC(=O)C[C@H](Cc2ccc(O)cc2)NC(=O)[C@H](Cc2cccc3ccccc23)NC(=O)[C@H](CCCCCC(=O)O)NC1=O (cyclo([1Nal][β3hY]K(Ac)[Asu])) |  | 4400 |  |  | 
8 | CC(C)C[C@H]1CC(=O)NC(C)(C)C(=O)N[C@@H](CCCCCC(=O)O)C(=O)N[C@@H](Cc2cccc3ccccc23)C(=O)N1 (cyclo([1Nal][β3hL][Aib][Asu])) |  |  |  | 870 | 
9 | CC(C)C[C@H]1CC(=O)N[C@@H](C)C(=O)N[C@@H](CCCCCC(=O)O)C(=O)N[C@@H](Cc2ccccc2)C(=O)N1 (cyclo(A[Asu]F[β3hL])) |  |  |  |  | IC50 (Histone deacetylase [3]): 541 nM
10 | CC1(C)NC(=O)C[C@H](Cc2c[nH]c3ccccc23)NC(=O)[C@H](Cc2cccc3ccccc23)NC(=O)[C@H](CCCCCC(=O)O)NC1=O (cyclo([1Nal][β3hW][Aib][Asu])) |  | 3700 |  |  | 
11 | CC[C@]1(O)C[C@@H]2CN(CCc3c([nH]c4ccccc34)[C@@](C(=O)OC)(c3cc4c(cc3OC)N(C)[C@H]3[C@@](O)(C(=O)OC)[C@H](OC(C)=O)[C@]5(CC)C=CCN6CC[C@]43[C@@H]65)C2)C1 [VINBLASTINE] |  |  |  |  | GI50 (cells): < 100 nM; GI50 (MCF7): 10000 nM
12 | CC(=O)NCCCC[C@@H]1NC(=O)C[C@H](CC(C)C)NC(=O)[C@H](Cc2c[nH]c3ccccc23)NC(=O)[C@H](CSCCC(=O)O)NC1=O (cyclo(C(CH2CH2COOH)W[β3hL]K(Ac))) | > 10000 | > 10000 |  | 7040 | 
13 | CCC(=O)CCSC[C@@H]1NC(=O)[C@H](C)NC(=O)C[C@H](CC(C)C)NC(=O)[C@H](Cc2c[nH]c3ccccc23)NC1=O (cyclo(AC(X1)W[β3hL])) | > 10000 | > 10000 | > 10000 | > 10000 | 
14 | CC(=O)NCCCCC[C@@H]1NC(=O)C[C@H](CC(C)C)NC(=O)[C@H](Cc2cccc3ccccc23)NC(=O)[C@H](CCCCCC(=O)O)NC1=O (cyclo([1Nal][β3hL][hLys](Ac)[Asu])) | 32 | > 10000 | 8 |  | GI50 (cells): 43000 nM; GI50 (Jurkat): 300 nM; GI50 (HeLa): 18000 nM; IC50 (Histone deacetylase [2]): 17 nM; GI50 (K562): 30000 nM
15 | O=C(O)CCCCC[C@@H]1NC(=O)[C@H](Cc2c(F)c(F)c(F)c(F)c2F)NC(=O)C[C@H](Cc2ccc(O)cc2)NC(=O)[C@H](Cc2cccc3ccccc23)NC1=O (cyclo([1Nal][β3hY][Phe(F5)][Asu])) |  | > 10000 | 1000 | 6700 | 
16 | CC(C)C[C@H]1CC(=O)N[C@@H](Cc2ccccc2)C(=O)N[C@@H](CCCCCC(=O)O)C(=O)N[C@@H](Cc2cccc3ccccc23)C(=O)N1 (cyclo([1Nal][β3hL]F[Asu])) | 690 | 5800 | 68 | 530 | GI50 (cells): > 20000 nM; GI50 (Jurkat): > 20000 nM; GI50 (HeLa): > 20000 nM; GI50 (MCF7): > 20000 nM; IC50 (Histone deacetylase [2]): 253 nM; Activity [4]: Active; GI50 (K562): > 20000 nM; Activity [5]: inactive; IC50 (Histone deacetylase [3]): 742 nM
17 | CC(C)C[C@H]1CC(=O)N[C@@H](CCCNC(=N)N)C(=O)N[C@@H](CCCCCC(=O)O)C(=O)N[C@@H](Cc2cccc3ccccc23)C(=O)N1 (cyclo([Asu][1Nal][β3hL]R)) | 262 | 1400 | 178 | 607 | 
18 | CCC(=O)CCCCC[C@@H]1NC(=O)[C@H](C)NC(=O)C[C@H](CC(C)C)NC(=O)[C@H](Cc2c[nH]c3ccccc23)NC1=O |  |  |  |  | GI50 (MCF7): > 20000 nM; GI50 (K562): 2000 nM
19 | N=C(N)NCCC[C@@H]1NC(=O)C[C@H](Cc2ccc(O)cc2)NC(=O)[C@H](CC(=O)O)NC(=O)[C@H](CCCCCC(=O)NO)NC1=O (cyclo([Asu](NHOH)D[β3hY]R)) |  |  |  |  | GI50 (Jurkat): > 20000 nM; GI50 (HeLa): 9000 nM; GI50 (MCF7): > 20000 nM; Activity [4]: inactive; Activity [5]: Active
20 | CC(C)C[C@H]1CC(=O)N[C@@H](C)C(=O)N[C@@H](CSCCC(=O)O)C(=O)N[C@@H](Cc2c[nH]c3ccccc23)C(=O)N1 (cyclo(C(CH2CH2COOH)W[β3hL]A)) | 7080 | > 10000 | 4840 | 6050 | 
21 | CC(C)C[C@H]1CC(=O)N[C@@H](C)C(=O)N[C@@H](CSCC(=O)O)C(=O)N[C@@H](Cc2c[nH]c3ccccc23)C(=O)N1 (cyclo(C(Carboxymethyl)W[β3hL]A)) | > 10000 | > 10000 | > 10000 | 9700 | 
22 | N=C(N)NCCC[C@@H]1NC(=O)C[C@H](Cc2ccc(O)cc2)NC(=O)[C@H](Cc2cccc3ccccc23)NC(=O)[C@H](CCCCCC(=O)O)NC1=O (cyclo([Asu][1Nal][β3hY]R)) |  |  |  | 1400 | 
23 | CC(C)C[C@H]1CC(=O)N[C@@H](C)C(=O)N[C@@H](CCCCCC(=O)NO)C(=O)N[C@@H](Cc2c[nH]c3ccccc23)C(=O)N1 (cyclo([Asu](NHOH)W[β3hL]A)) |  |  |  |  | GI50 (Jurkat): 1700 nM
